Data published in patent publication US20250057909A1, “NOVEL USE OF ALANYL-GLUTAMINE AND OPHTHALMIC COMPOSITION COMPRISING ALANYL-GLUTAMINE” (SEINDA PHARMACEUTICAL GUANGZHOU CORPORATION, priority 2021, published 2025).
Marks after values point to notes of the source that are not given here.

Columns and labels:
corneal cells = assay: Vitro model of corneal ulcer: growth of corneal cells in culture in vitro; type: cell-based, ICR mice; settings: cornea of immunised mice co-cultured with autologous leukocytes
Description: The rabbit corneas were taken and cut into pieces, 5-10 times volume of 5% triton solution was added and homogenized until there were no lumpy particles, then centrifuged at 3000 r/min for 10 min, and the supernatant was taken. 5 ml of the supernatant was taken and mixed with 5 ml of complete Freund's adjuvant to prepare a mixed solution for later use.
SPF grade ICR mice were divided into normal group, immune group, and cyclophosphamide group, 10 mice/group. The normal group received subcutaneous injection of 0.5 ml of physiological saline per mouse; Each mouse in the immune group and cyclophosphamide group was subcutaneously injected with the mixed solution+physiological saline, the mixed solution+cyclophosphamide 300 mg/kg respectively, and the injection sites were not overlapped; Injection was performed once every other day for a total of 10 times. 3 days after the last injection, the mice were euthanized using the bloodletting method, and the eyeballs were removed and cut into pieces under sterile conditions. At the same time, the cornea and the leukocytes separated from autologous blood were co-cultured in a 24-well culture plate.

guinea pig skin = assay: Skin allergy test
[1] = 1 h after challenge and drug removal
[2] = 24 h after challenge and drug removal
[3] = 48 h after challenge and drug removal

O=P1(N(CCCl)CCCl)NCCCO1 (stereo not shown) [cyclophosphamide]
Growth of corneal cells in culture in vitro, Number (corneal cells; Grow time 72 h): 8
Growth of corneal cells in culture in vitro, Percentage % (growth rate) (corneal cells; Grow time 72 h): 16.0** %
Growth of corneal cells in culture in vitro, Number (corneal cells; Grow time 120 h): 11
Growth of corneal cells in culture in vitro, Percentage % (growth rate) (corneal cells; Grow time 120 h): 22.0** %

O=[N+]([O-])c1ccc(Cl)c([N+](=O)[O-])c1 [2,4-dinitrochlorobenzene]
Average score (guinea pig skin; [1]): 2.2
Number of allergic animals (guinea pig skin; [1]): 10
Total score (guinea pig skin; [1]): 22
Average score (guinea pig skin; [2]): 1.7
Number of allergic animals (guinea pig skin; [2]): 10
Total score (guinea pig skin; [2]): 17
Average score (guinea pig skin; [3]): 1.0
Number of allergic animals (guinea pig skin; [3]): 10
Total score (guinea pig skin; [3]): 10
